Experimental data reported in patent publication US20250091994A1, “RAS/RAF BINDING INHIBITOR COMPOUND” (NATIONAL UNIVERSITY CORPORATION KOBE UNIVERSITY, priority 2021, published 2025).
Where two headings read alike, the source gives them in different places. One block for each compound: values may come before it.

Tests used:
[1] = biological target: GTPγS-bound human HRasG12V / human c-Raf-1 Ras binding domain (RBD) (Homo sapiens (Human), UniProt P01112, G12V); assay: Ras-Raf binding inhibition ELISA
Experimental: The in vitro Ras-Raf binding inhibitory activity of the compound of the present invention was evaluated by an ELISA method (Enzyme-Linked ImmunoSorbent Assay) described below.
Ras and Raf used upon the evaluation were purified and activated by the following method.
Using a pGEX6P-1 vector (GE Healthcare), human HRasG12V (full length, 1-189 amino acid residues) and human c-Raf-1 Ras binding domain (RBD) (50-131 amino acid residues) were each allowed to express as a fusion body with glutathione S-transferase (GST) in E. coli.
GST-HRasG12V-expressing cells were subjected to ultrasonication in a buffer {50 mM Tris-HCl pH 7.4, 150 mM NaCl, 5 mM MgCl2, 1 mM ethylenediaminetetraacetic acid (EDTA), 1 mM dithiothreitol (DTT), 10% glycerol, and 1% Triton-X100}, and were then centrifuged at 100,000×g for 30 minutes, so as to collect the supernatant as a Ras protein fraction. HRasG12V in the supernatant was immobilized on a glutathione-agarose resin, and GST was then cleaved with PreScission Protease (GE Healthcare) for purification. The obtained HRasG12V was mixed with guanosine 5′-O-[gamma-thio]triphosphate trisodium salt (GTPTS) of 1000 times higher concentration at 30° C. for 1 hour, and thereafter, 20 mM MgCl2 (final concentration) was added to stop the reaction and collect the GTPgS-loaded HRasG12V as a product.
On the other hand, GST-c-Raf-1 RBD-expressing cells were subjected to ultrasonication in the same buffer as described above, and were then centrifuged at 100,000×g for 30 minutes, so as to collected the supernatant as a GST-c-Raf-1 RBD protein fraction.
The in vitro Ras-Raf binding inhibitory activity of the compound of the present invention was evaluated by an ELISA method described below.
GST-c-Raf-1 RBD diluted with a Ras-Raf binding buffer (50 mM Tris-HCl pH7.4, 150 mM NaCl, 5 mM MgCl2, 1 mM EDTA, and 1% Triton-X100) was added to each well of a glutathione-coated 96-well plate (Thermo Fisher Scientific.), and was incubated at 30° C. for 1 hour, to immobilize Raf on the well. The unbound free Raf was eliminated by washing the well with the Ras-Raf binding buffer three times. Subsequently, GTPTS-bound HRasG12V diluted with the Ras-Raf binding buffer and each compound solution (final DMSO concentration: 10%) were applied to each well, and the resulting mixture was then incubated at 30° C. for 1 hour, so that Ras and Raf were allowed to bind to each other. Thereafter, the plate was washed with the Ras-Raf binding buffer twice, and was then subjected to a blocking treatment at room temperature for 20 minutes, using TBS-Tween {10 mM Tris-HCl pH 7.4, 150 mM NaCl, and 0.05% (w/v) Tween-20}-5% (w/v) bovine serum albumin (BSA). After that, an anti-HRas antibody (C-20, Santa Cruz) or an anti-HRas antibody (259, Santa Cruz), which had been 1000 times diluted with TBS-Tween-5% BSA, was added to the reaction mixture, and incubated at room temperature for 1 hours. After the treatment with the primary antibody, the plate was washed with TBS-Tween-5% BSA three times, and a horseradish peroxidase-labeled secondary antibody against rabbit immunoglobulin G (GE Healthcare) of 1000 times diluted with TBS-Tween-5% BSA, was added to the plate, followed by incubation at room temperature for 1 hour. After the treatment with the secondary antibody, the plate was washed with TBS-Tween-5% BSA three times, and a substrate solution (TMB) was then added to the plate, followed by incubation at room temperature for 15 minutes for coloration. Finally, 2 M H2SO4 was added to stop color development (coloration reaction kit: Nacalai Tesque). The absorbance at 450 nm (OD450) was measured, so that the color intensity was quantified. Inhibition by the test compound was determined according to the following equation: […]
IC50 (*) in which the anti-HRas antibody (259, Santa Cruz) was used

[2] = tested on: promyelocytic leukemia cells HL60 (N-RasQ61L); assay: Cell growth inhibition, suspension cells HL60; type: cell-based; conditions: Homo sapiens, HL-60, 72 hours; for inhibition at 10 µM: read-out: HL-60 (NRasQ61L) % inhibition at 10 μM (***)
Experimental: The cell growth inhibitory activity of the compound of the present invention on human culture cells having active-type mutation in Ras was evaluated by the below-mentioned method using suspension cancer cells {acute lymphoblastic leukemia cells CCRF-CEM (K-RasG12D), promyelocytic leukemia cells HL60 (N-RasQ61L), acute lymphoblastic leukemia cells MOLT4 (N-RasG12C), and small cell lung cancer cells SHP77 (K-RasG12V)} and adherent cancer cells {large bowel cancer cells SW480 (K-RasG12V) and large bowel cancer cell SW620 (K-RasG12V)}.
(Case of suspension cells) The cells suspended in a medium containing 0.5% (v/v) fetal bovine serum (FBS) and each compound solution (final DMSO concentration: 1%) were seeded on a 96-well plate (2 to 4×10^4 cells/well), and the resulting mixture was then cultured at 37° C. in the presence of 5% CO2 for 72 hours.
Thereafter, the number of viable cells was measured using Cell Counting Reagent (Nacalai Tesque) in accordance with the manufacturer's instructions. Inhibition by the test compound was determined according to the following equation: […]

[3] = anti-HRas antibody 259 (*), read-out: ELISA IC50 (μM): 1st Ab_259 (*)
[4] = anti-HRas antibody C-20, read-out: ELISA IC50 (μM): 1st Ab_C-20

Chain of GTPγS-bound human HRasG12V / human c-Raf-1 Ras binding domain (RBD) (P01112 whole entry G12V, the tested form may be a part): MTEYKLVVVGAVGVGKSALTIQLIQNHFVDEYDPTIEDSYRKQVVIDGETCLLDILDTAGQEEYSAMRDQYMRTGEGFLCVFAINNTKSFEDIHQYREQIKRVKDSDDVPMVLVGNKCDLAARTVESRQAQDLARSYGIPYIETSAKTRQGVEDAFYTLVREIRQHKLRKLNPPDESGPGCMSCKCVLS

IC50 [1, 3]: 1.7 µM
SMILES: CC(=O)N1/C(=C\c2ccc3cc(CNC4C[C@@H](C)O[C@@H](C)C4)ccc3n2)C(=O)c2ccccc21 (mixture of isomers) [Example 136, (Z)-1-acetyl-2-((6-((((2SR,6RS)-2,6-dimethyltetra-hydro-2H-pyran-4-yl)amino)meth-yl)quinolin-2-yl)-methylene)indolin-3-one]

IC50 [1, 3]: 1.3 µM
SMILES: CC(=O)N1/C(=C\c2ccc3cc(CNC4CC(C)O[C@H](C)C4)ccc3n2)C(=O)c2ccccc21 (mixture of isomers) [Example 137, (Z)-1-acetyl-2-((6-((((2SR,6SR)-2,6-dimethyltetra-hydro-2H-pyran-4-yl)amino)meth-yl)quinolin-2-yl)-methylene)indolin-3-one]

inhibition at 1 µM [1]: 59.9%
IC50 [1, 4]: 0.8 µM
SMILES: CC(=O)N1/C(=C\c2cc(-c3nc[nH]n3)c3cc(C(=O)N4CCOCC4)ccc3n2)C(=O)c2ccccc21 (racemic) [Example 212, 1-acetyl-2-((6-(morpholine-4-carbonyl)-4-(1H-1,2,4-triazol-3-yl)-quinolin-2-yl)-methylene)indolin-3-one]

inhibition at 100 µM [1]: 57%
SMILES: COc1cc(/C=C2/C(=O)c3ccccc3N2C(C)=O)ccc1O [Example 3, 1-acetyl-2-(4-hydroxy-3-meth-oxybenzylidene)-indolin-3-one]

inhibition at 100 µM [1]: 71%
SMILES: CC(=O)N1/C(=C\c2ccc(OCC(N)=O)cc2)C(=O)c2ccccc21 [Example 5, 2-(4-((1-acetyl-3-oxoindolin-2-ylidene)methyl)-phenoxy)acetamide]

inhibition at 100 µM [1]: 83%
SMILES: COc1cc(/C=C2/C(=O)c3ccccc3N2C(C)=O)ccc1OCCN1CCOCC1 [Example 7, (Z)-1-acetyl-2-(3-methoxy-4-(2-morpholinoethoxy)-benzylidene)indolin-3-one]

inhibition at 100 µM [1]: 49%
SMILES: COc1cc(/C=C2/C(=O)c3ccccc3N2C(C)=O)ccc1OCCOc1ccccc1 [Example 12, 1-acetyl-2-(3-methoxy-4-(2-phenoxyethoxy)-benzylidene)-indolin-3-one]

inhibition at 100 µM [1]: 63%
SMILES: CC(=O)N1/C(=C\c2ccc(OCC(N)=O)c(OC(C)C)c2)C(=O)c2ccccc21 [Example 30, 2-(4-((1-acetyl-3-oxoindolin-2-ylidene)methyl)-2-isopropoxy-phenoxy)acet-amide]

IC50 [1, 4]: 14 µM
SMILES: CC(=O)N1/C(=C\c2ccc(OCC(=O)N3CCOCC3)c(F)n2)C(=O)c2ccccc21 [Example 32, (Z)-1-acetyl-2-((6-fluoro-5-(2-morpholino-2-oxoethoxy)-pyridin-2-yl)-methylene)-indolin-3-one]

IC50 [1, 4]: 14 µM
SMILES: CC(=O)N1/C(=C\c2ccc(C(=O)N3CCOCC3)cn2)C(=O)c2ccccc21 [Example 70, (Z)-1-acetyl-2-((5-(morpholine-4-carbonyl)pyridin-2-yl)methylene)-indolin-3-one]
inhibition at 1 µM ([2]; 1 μM, read-out: HL-60 (NRasQ61L) % inhibition at 1 μM): 33%

IC50 [1, 3]: 3.6 µM
SMILES: CC(=O)N1/C(=C\c2ccc3oc(C(=O)N4CCOCC4)cc3n2)C(=O)c2ccccc21 [Example 72, (Z)-1-acetyl-2-((2-(morpholine-4-carbonyl)furo [3,2-b]pyridin-5-yl)methylene)-indolin-3-one]

IC50 [1, 3]: 0.71 µM
SMILES: CC(=O)N1/C(=C\c2ccc3cc(CN4CCN(C5COC5)CC4)ccc3n2)C(=O)c2ccccc21 [Example 74, (Z)-1-acetyl-2-((6-((4-(oxetan-3-yl)piperazin-1-yl)methyl)quinolin-2-yl)methylene)-indolin-3-one]
inhibition at 10 µM [2]: 99%

IC50 [1, 3]: 0.93 µM
SMILES: CC(=O)N1/C(=C\c2ccc3cc(/C=C/C(=O)N4CCN(C5COC5)CC4)ccc3n2)C(=O)c2ccccc21 [Example 78]
inhibition at 10 µM [2]: 92%

IC50 [1, 3]: 0.68 µM
SMILES: CC(=O)N1/C(=C\c2nc3cc(C(=O)N4CC(C)OC(C)C4)ccc3s2)C(=O)c2ccccc21 (centres unmarked) [Example 98, (Z)-1-acetyl-2-((5-(2,6-dimethyl-morpholine-4-carbonyl)benzo [d]thiazol-2-yl)-methylene)indolin-3-one]
inhibition at 10 µM [2]: 100%

SMILES: CC(=O)N1/C(=C/c2nc3ccc(C(=O)N4CC(C)OC(C)C4)cc3s2)C(=O)c2ccccc21 (centres unmarked) [Example 101, (E)-1-acetyl-2-((6-(2,6-dimethyl-morpholine-4-carbonyl)benzo [d]thiazol-2-yl)-methylene)indolin-3-one]
inhibition at 10 µM [2]: 87%

IC50 [1, 3]: 1.1 µM
SMILES: CC(=O)N1/C(=C\c2nc3ccc(CNC4CCOCC4)cc3s2)C(=O)c2ccccc21 [Example 134]

SMILES: CC(=O)N1/C(=C/c2nc3ccc(CNC4CCOCC4)cc3s2)C(=O)c2ccccc21 [Example 135, (E)-1-acetyl-2-((6-(((tetrahydro-2H-pyran-4-yl)-amino)methyl)-benzo[d]thiazol-2-yl)methylene)-indolin-3-one]
inhibition at 10 µM [2]: 98%

inhibition at 1 µM [1]: 59.3%
IC50 [1, 4]: 0.7 µM
SMILES: CC(=O)N1/C(=C\c2cc(-c3cccc4cccnc34)c3cc(C(=O)O)ccc3n2)C(=O)c2ccccc21 [Example 155, (Z)-2-((1-acetyl-3-oxoindolin-2-ylidene)methyl)-[4,8′-biquinoline]-6-carboxylic acid]

inhibition at 1 µM [1]: 70.1%
IC50 [1, 4]: 0.5 µM
SMILES: CC(=O)N1/C(=C\c2cc(-c3ccc(C(=O)O)cc3)c3cc(C(=O)N4CCOCC4)ccc3n2)C(=O)c2ccccc21 [Example 174, (Z)-4-(2-((1-acetyl-3-oxoindolin-2-ylidene)methyl)-6-(morpholine-4-carbonyl)quinolin-4-yl)benzoic acid]

inhibition at 1 µM [1]: 67.2%
IC50 [1, 4]: 0.5 µM
SMILES: CC(=O)N1/C(=C\c2cc(-c3cccc(C(=O)O)c3)c3cc(C(=O)N4CCOCC4)ccc3n2)C(=O)c2ccccc21 [Example 175, (Z)-3-(2-((1-acetyl-3-oxoindolin-2-ylidene)methyl)-6-(morpholine-4-carbonyl)quinolin-4-yl)benzoic acid]

inhibition at 1 µM [1]: 51.1%
IC50 [1, 4]: 1 µM
SMILES: CC(=O)N1/C(=C\c2cc(-c3ccccc3C(=O)O)c3cc(C(=O)N4CCOCC4)ccc3n2)C(=O)c2ccccc21 [Example 176, (Z)-2-(2-((1-acetyl-3-oxoindolin-2-ylidene)methyl)-6-(morpholine-4-carbonyl)quinolin-4-yl)benzoic acid]

inhibition at 1 µM [1]: 49.2%
IC50 [1, 4]: 1.1 µM
SMILES: CC(=O)N1/C(=C\c2cc(-c3cccnn3)c3cc(C(=O)N4CCOCC4)ccc3n2)C(=O)c2ccccc21 [Example 191, (Z)-1-acetyl-2-((6-(morpholine-4-carbonyl)-4-(pyridazin-3-yl)-quinolin-2-yl)-methylene)indolin-3-one]
